Patent US20200199527A1, “METHODS OF MATURATION OF HUMAN SPERMATOGONIUM” (B.G. Negev Technologies & Applications Ltd., at Ben-Gurion …, priority 2017, published 2020)

Experiments:
[1] = tested on: Isolated testicular cells (from azoospermic adult patients); assay: Effect of TNFα on development of spermatogenic markers in vitro in methylcellulose culture system (MCS); assay type: cell-based, human; set-up: key to VASA (pre-meiotic marker) staining / PLZF (pre-meiotic marker) staining / SALL4 (pre-meiotic marker) staining / CREM (meiotic marker) staining / BOULE (meiotic marker) staining / ACROSIN (post-meiotic marker) staining: “+” indicates positive staining for the indicated marker; “−” indicates negative staining for the indicated marker
Excerpt: After an overnight in sperm wash media containing 30% human serum albumin at room temperature (RT), TESE specimen were re-searched for sperm and then collected into the same media and transferred to the present inventor' lab, while TEFNA specimens were transferred to Modified Human Tubal Fluid (HTF) media containing 15% serum protein substitutes and transferred to the present inventor' lab after two days at RT. For cell isolation, biopsies were cut into small pieces of ˜2 mm, and subjected to collagenase type V (2 mg/ml) (Sigma, St. Louis, Mo., USA), DNAse (8 μg/ml) (Sigma) and hyelorunidase (2 mg/ml) (Sigma) in a total volume of 4 ml for 20 minutes in a 32° C. water bath shaker. Cells were precipitated by centrifugation (300×g, 10 minutes) and suspended with 4 ml of Tryple Select (Gibco, Denmark) for 10 minutes in a shaking water bath at 32° C. Cell suspension was centrifuged (300×g, 10 minutes) and the precipitated cells were suspended in 200 μl Roswell Park Memorial Institute (RPMI) (Biological Industries, Beit Haemek, Israel) and counted. Cells were cultured (2×10^4 cells/well/500 μl) in Minimum Essential Medi (MEM) (Biological Industries) which contained sodium bicarbonate (Gibco, UK), 7.5%, L-glutamine (Biological industries) 200 mM, non-essential amino acids (Gibco, UK) 1%, penicillin/streptomycin (Biological Industries) and gentamicin (Biological Industries) (10 mg/ml), and incubated for 2 nights in 24 well plates at 37° C., 5% CO2. The nonadherent cells were collected and cultured (2×10^4 cells/well/500 μl) in methylcellulose (R&D, Minneapolis, USA) (42%) [as a three-dimension (3D) culture system], which contained 33% StemPro-34 medium (Gibco, USA) enriched with: StemPro supplement (2.6%) (Gibco), insulin (25 μg/ml) (Gibco), transferrin (100 μg/ml) (Gibco), putrescin (60 μg/ml) (Gibco), sodium selenite (30 nM) (Gibco), D-glucose (6 mg/ml) (Sigma), pyruvic acid (30 μg/ml) (Sigma), BSA (Millpore, Illkirch, France) (5 mg/ml), L-glutamine (2 mM) (Biological Industries), 2-mercaptoethanol (0.5 μM) (Gibco), MEM vitamin solution (10 μl/ml) (Gibco, UK), MEM non-essential amino acid solution (10 μl/ml) (Gibco, UK), ascorbic acid (100 μM) (Sigma, China), d-biotin (10 μg/ml) (Sigma), 1% KSR (Gibco, UK), 0.5% Pen/Strep (Biological Industries), human rEGF (20 ng/ml) (Biolegend, CA, USA), human rGDNF (10 ng/ml) (Biolegend), human rLIF (10 ng/ml) (Biolegend) and human r-bFGF (10 ng/ml) (Biolegend). Cells were cultured for 1-16 weeks. Every 1-2 weeks (according to the growth and morphology of the cells), we added 50 μl/well of fresh concentrated (×10) enriched StemPro-34 medium to the cell cultures.
Isolated cells were fixed in cold methanol for 20 minutes. The immunostaining process was similar to that mentioned above for testicular tissue immunostaining after the stage of antigen retrieval. Following the removal of the blocking buffer, the first antibodies were added: Polyclonal rabbit anti-mouse SALL4 (Abcam, Cambridge, UK; 1:400), Polyclonal rabbit anti-human VASA (Santa Cruz 1:100), Polyclonal rabbit anti-human CD9 (Santa Cruz; 1:10), Polyclonal goat anti-human OCT4 (Santa Cruz; 1:50), Polyclonal rabbit anti-human α-6-INTEGRIN (Santa Cruz; 1:100), Polyclonal rabbit anti-human GFR-α □(Santa Cruz; 1:50), monoclonal mouse anti-human PLZF (Santa Cruz; 1:100), Polyclonal rabbit anti-human c-KIT (Santa Cruz; 1:50), Polyclonal rabbit anti-human BOULE (Santa Cruz; 1:25), Polyclonal rabbit anti-mouse CREM-1 (Santa Cruz; 1:30), Polyclonal goat anti-human LDH (Santa Cruz; 1:50), Polyclonal goat anti-mouse PROTAMINE (Santa Cruz; 1:20), Polyclonal rabbit anti-human ACROSIN (Santa Cruz; 1:10), monoclonal mouse anti-human Ki67 (Dianova GmbH, Germany; 1:200), monoclonal rabbit anti-human Ki67 (Cell marque; 1:200). After overnight incubation at 4° C., the slides were washed and treated as mentioned above for testicular tissue immunostaining. […]

[2] = tested on: cells isolated from seminiferous tubules of ICR immature (7-day-old) mice; assay: Effect of hormones and retinoic acid on development of mouse spermatogenesis in vitro in methylcellulose culture system (qPCR of markers); assay type: cell-based; conditions: 10^−8 M, 10^−7 M or 10^−6 M added after two weeks of culture, examined after total four weeks, normal immature mice
Experimental: Cells were enzymatically isolated from seminiferous tubules of ICR mice (which were developed by the Institute of Cancer Research, also called CD-1) immature mice (7-day-old mice).
Briefly, cells were cultured (2×10^5 cells/well/500 μl) in MEM medium which contained sodium bicarbonate 7.5%, L-glutamine 200 mM, non-essential amino acids 1%, penicillin/streptomycin and gentamicin 10 mg/ml, and were incubated over 2 nights in 24 wells plate at 37° C., 5% CO2. The nonadherent cells were collected and cultured ([…] cells/well/500 μl) in methylcellulose (42%; R&D, Minneapolis, USA) [as a three-dimension (3D) culture system], which contained the StemPro-34 medium (Gibco, USA) enriched with: 10% KSR (knockout serum replacement, Gibco, USA) and the following growth factors: Glial cell-derived neurotrophic factor (GDNF; 10 ng/ml; Biolegend), Leukemia inhibitory factor (LIF; 10 ng/ml; Biolegend), epidermal growth factors (EGF; 20 ng/ml; Biolegend, CA, USA), bFGF (basic fibroblast growth factor) (10 ng/ml; Biolegend).
Cells were cultured for 4 weeks. Every 1-2 weeks (according to the growth and morphology of the cells) the present inventor added 50 μl/well of fresh concentrated (×10) enriched StemPro-34 medium to the cell cultures. […]

[3] = TNFα 20 pg/ml, after culture (14.5 Ws) in MCS, patient 1, immunofluorescence staining

Row | Molecule | differentiation of the pre-meiotic cells to meiotic cells that express CREM ([1]; TNFα 20 pg/ml, patient #1, compared to CT (did not induce CREM)) | growth of premeiotic cells VASA and PLZF, meiotic cells (Boule) and postmeiotic cells (acrosin positive cells) ([1]; TNFα 20 pg/ml, patient #1, versus control (CT)) | ACROSIN (post-meiotic marker) staining [1, 3] | BOULE (meiotic marker) staining [1, 3] | CREM (meiotic marker) staining [1, 3] | PLZF (pre-meiotic marker) staining [1, 3] | SALL4 (pre-meiotic marker) staining [1, 3] | VASA (pre-meiotic marker) staining [1, 3] | development of colonies in MCS ([1]; in the presence of TNFα) | expression of the meiotic/post-meiotic marker ACROSIN [2]
1 | TNFα | induced the differentiation | maintained/induced growth | + | + | + | + | − | + | colonies were developed | 
2 | C[C@]12CC[C@H]3[C@@H](CCC4=CC(=O)CC[C@@]43C)[C@@H]1CC[C@@H]2O [testosterone] |  |  |  |  |  |  |  |  |  | increased
